Results reported in patent US8105630B2, “Composition containing medicine extremely slightly soluble in water being excellent in eluting property and method for preparation thereof” (Kowa Co., Ltd., priority 2003, dated 2012).
≈ marks a conversion by molar mass, not a printed value.

Assay: physchem
Conditions: 25 °C, water

solubility	SMILES
0.01 µg/mL (≈ 0.0239 µM)	CSc1ccc(-c2nn(Cc3ccccc3)c(=O)cc2-c2ccc(Cl)cc2)cc1 [Compound A, 2-benzyl-5-(4-chlorophenyl)-6-[4-(methylthio)phenyl]-2H-pyridazin-3-one]
0.1 µg/mL (≈ 0.259 µM)	CC(C)CCC[C@@H](C)[C@H]1CC[C@H]2[C@@H]3CC=C4C[C@@H](O)CC[C@]4(C)[C@H]3CC[C@]12C [cholesterol]
0.9 µg/mL (≈ 1.87 µM)	O=C(Nc1cccc2c(=O)cc(-c3nnn[nH]3)oc12)c1ccc(OCCCCc2ccccc2)cc1 [pranlukast]

SMILES	solubility
CCCCC(=O)O[C@]1(C(=O)COC(C)=O)CC[C@H]2[C@@H]3CCC4=CC(=O)C=C[C@]4(C)[C@H]3[C@@H](O)C[C@@]21C [prednisolone valerate acetate]	4 µg/mL
